Like-named read-outs stand apart in the source and are kept apart here.
Columns and labels:
[1] = target: α2-adrenoceptor; assay: Competitive radioligand binding, [3H]clonidine, rat cerebral cortex; settings: n.a. = no activity at 10–5 M
Method: The competitive radioligand-binding assay assessed affinity for α1- and α2-adrenoceptors. Experiments were carried out in the rat cerebral cortex. […] The membrane preparation and assay technique followed the previously reported protocol [10]. Radioactivity was measured using the MicroBeta2 scintillation counter (PerkinElmer, Kraków, Poland). The data was adjusted to match a single-site curve-fitting formula using Prism 8 (GraphPad Software, La Jolla, CA, USA), and the Ki values were estimated by means of the Cheng–Prusoff formula.

[2] = system: HepG2 cells; assay: Glucose consumption (Amplex Red assay) in HepG2 cells; assay type: cell-based, human; settings: for increase in glucose consumption (uptake): relative to vehicle-treated cells
Method: The HepG2 human hepatocellular carcinoma cell line (ATCC® HB-8065™) was cultured in DMEM supplemented with 10% FBS, 100 µg/mL streptomycin, and 100 IU/mL penicillin at 37 °C in 5% CO2. Cells were seeded in 96-well plates at a density of 10,000 cells/well and used for experiments 24 h after plating.
Stock solutions of test compounds were prepared at a concentration of 10 mM in dimethyl sulfoxide (DMSO). At least 1 mg of each substance was carefully measured and mixed with the right amount of DMSO. A series of dilutions were made in DMSO and then further diluted in phosphate-buffered saline before being introduced into the cell culture medium. Precipitation or opalescence was assessed prior to application.
The glucose uptake was measured with the Amplex® Red Glucose/Glucose Oxidase Assay Kit from Thermo Fisher Scientific, following the guidelines provided by the maker. Cell culture supernatants were collected and incubated with a reaction mix containing 100 μM Amplex® Red reagent, 0.2 U/mL horseradish peroxidase (HRP), and 1 U/mL glucose oxidase at room temperature for 30 min in the dark. Fluorescence was measured at 530 nm excitation and 590 nm emission using the POLARstar Omega plate reader (BMG Labtech).

[3] = system: C57BL/6 mice; assay: Inhibition of gastric emptying (mouse model, phenol red); assay type: in vivo
Method: Fifty male C57BL/6 mice (22–27 g) were housed in standard cages while maintaining a 12:12-h light/dark cycle, with food and water available ad libitum. The experimental procedures were performed from 10:00 a.m. to 14:00 p.m.
The experiment was conducted according to Miyasaka et al. and Kotańska et al., with some minor modifications. Mice were subjected to a 20 h food deprivation and a 2 h water deprivation prior to testing. The animals received a vehicle (0.25 mL/mouse) alone or along with various compounds: JP-14 (10 mg/kg b. w.), RT (5 mg/kg body weight), metformin (100 mg/kg b. w.), or loperamide (reference compound; 10 mg/kg b. w.) via gastric gavage. Following a 45 min interval, phenol red (0.5 mL, 0.05% w/v) combined with glucose (1 g/kg body weight) was administered through the same route. Additionally, each group received an intraperitoneal injection of heparin (2500 U/mouse) 20 min prior to the collection of stomach contents. Seven mice treated with the vehicle were sacrificed immediately after the phenol red administration to serve as a standard control (representing 100% phenol red in the stomach at 0 min), establishing a baseline for maximum absorbance (100%). The leftover mice were sacrificed 30 min later. The stomachs were removed and homogenized using an OMNI homogenizer (OMNI International Company, Kennesaw, GA, USA), with 10 mL of 0.1 N NaOH. To 5 mL of homogenate, 0.5 mL of 20% w/v solution of trichloroacetic acid was incorporated to precipitate the proteins. Subsequently, the samples were centrifuged at 600× g for 15 min at a temperature of 20 °C, and 0.25 mL of supernatant was mixed with 1 mL of 0.5 N NaOH to achieve maximum color intensity. The concentration of phenol red was measured using spectrophotometry, with absorbance evaluated at a wavelength of 560 nm (MuLTISKAN.GO, Thermo Fisher Scientific Inc., Waltham, MA USA). For each mouse, the percentage of gastric emptying (GE %) was calculated using the following equation:(1) GE%=(Ac0−Ab)/(Ac0−Ac30)×100% where: Ac0 is the absorbance of the control gastric sample collected immediately after dye administration, and Ac30 is the absorbance of the control gastric sample collected 30 min after dye administration, i.e., Ac0–Ac30 = 100% gastric emptying.

[4] = system: 3T3-L1 cells; assay: Lipid accumulation (AdipoRed assay) in 3T3-L1 cells; assay type: cell-based, mouse; settings: for lipid accumulation (intracellular lipid content), reduction: 10 µM, compared to vehicle-treated controls
Method: (§1) The 3T3-L1 mouse embryonic fibroblast cell line (ATCC CRL-11605) was cultured according to the standard protocol in Dulbecco’s Modified Eagle Medium (DMEM) supplemented with 10% bovine calf serum, 100 µg/mL streptomycin, and 100 IU/mL penicillin, at 37 °C in a humidified atmosphere containing 5% CO2. Cells were seeded at a density of 10,000 cells/well in collagen type I–coated (10 µg/mL) 96-well plates and allowed to attach for 24 h. Differentiation was initiated by replacing the medium with induction medium composed of DMEM, 0.5 mM 3-isobutyl-1-methylxanthine (IBMX), 1 µM dexamethasone, and 10% fetal bovine serum (FBS). After 48 h (differentiation day 2), the medium was replaced with DMEM supplemented with 10% FBS and 10 µg/mL human recombinant insulin. After an additional 24 h, the medium was replaced with DMEM supplemented with 10% bovine calf serum, 100 µg/mL streptomycin, and 100 IU/mL penicillin. The medium was refreshed every 24 h for 10 consecutive days to allow full differentiation into adipocytes.
On day 10 of differentiation, cells were treated with test compounds for 24 h. To investigate the involvement of the TAAR1 receptor, cells were pre-treated for 15 min with the selective TAAR1 antagonist RTI-7470-44 (40 nM) before compound exposure. After incubation, the culture medium was removed, and wells were gently rinsed with 200 µL PBS and refilled with 200 µL PBS. AdipoRed reagent (5 µL; Lonza) was added to each well, mixed, and incubated at room temperature for 10 min. Fluorescence was measured using the POLARstar Omega plate reader (excitation 485 nm, emission 535 nm).

[5] = system: multiple species TAAR1 (mouse, rat, and human); set-up: method as in PMID 31848873; settings: heterologous cell lines; cited from earlier work
[6] = system: 3T3-L1 adipocytes; assay: Steatosis, HCS LipidTOX imaging in 3T3-L1 adipocytes; assay type: cell-based, mouse
Method: as §1
(§2) Lipid accumulation and phospholipidosis were evaluated using the HCS LipidTOX Phospholipidosis and Steatosis Detection Kit (Thermo Fisher Scientific). Cells were cultured in black, clear-bottom 96-well plates and treated as described. Next, cells were fixed with 4% paraformaldehyde (15 min), washed with PBS, and stained with LipidTOX Green Neutral Lipid Stain (for steatosis) and LipidTOX Red Phospholipidosis Detection Reagent, prepared according to the manufacturer’s instructions. Nuclei were counterstained with Hoechst 33342 (2 µg/mL). Image acquisition and quantitative analysis were performed using High Content Screening (HCS) technology on the ImageXpress XLS system (Molecular Devices). Lipid droplet and phospholipid content were quantified using automated image analysis pipelines.

[7] = system: 3T3-L1 adipocytes; assay: Phospholipidosis, HCS LipidTOX imaging in 3T3-L1 adipocytes; assay type: cell-based, mouse
Method: as §1, §2

[8] = system: HEPG2 cell line; assay: Cell viability assay (PrestoBlue, metabolic function), HepG2; assay type: cell-based, human; settings: 24 h, mean
Method: (§3) Prior to investigating the biological activity and molecular characteristics of the test compounds in vitro, a comprehensive cytotoxicity screening was performed using HepG2 and 3T3-L1 cell lines. Two complementary assays were applied: one based on the quantification of adenylate kinase release as an indicator of cell membrane damage, and another relying on resazurin reduction to assess cellular metabolic activity. These complementary assays enable sensitive and reliable detection of cytotoxic effects across diverse cell types. This preliminary assessment was carried out to ensure that subsequent functional analyses would not be confounded by nonspecific cytotoxic effects.
(§4) Cell viability was measured using PrestoBlue reagent (Thermo Fisher Scientific, Waltham, MA, USA), following the manufacturer’s instructions. After 24 h of compound treatment, PrestoBlue reagent was added to each well at 10% of the remaining medium volume. The plate was incubated at 37 °C for 15 min, and fluorescence was measured using the POLARstar Omega plate reader (excitation 530 nm, emission 580 nm). Results were expressed as a percentage of viable cells relative to the DMSO-treated control.

[9] = system: 3T3-L1 cell line; assay: Cell viability assay (PrestoBlue, metabolic function), 3T3-L1; assay type: cell-based, mouse; settings: 24 h, mean
Method: as §3, §4

[10] = system: HEPG2 cell line; assay type: cell-based; settings: human, 24 h
Method: as §3
(§5) The damage of cell membrane was evaluated with the ToxiLight BioAssay Kit from Lonza (Visp, Switzerland). This test is very sensitive and measures cell damage by looking at the release of adenylate kinase (AK). After 24 h of treatment, 5 µL of culture supernatant was transferred to a 384-well white plate (PerkinElmer, Singapore), followed by the addition of 20 µL of Adenylate Kinase Detection Reagent (AKDR). After a 10 min incubation at room temperature, luminescence was measured using the POLARstar Omega plate reader (BMG Labtech, Ortenberg, Germany). Results were expressed as a percentage relative to a lysed control (100% cell death).

[11] = system: 3T3L1 cell line; assay type: cell-based; settings: mouse, 24 h
Method: as §3, §5

[12] = target: T1, human TAAR1 (Homo sapiens, UniProt Q96RJ0); assay: TAAR1 agonist activity, Hit Hunter cAMP assay; assay type: cell-based; settings: cAMP accumulation; n.a. = no activity at 10–5 M; read-out: TAAR1 Ago EC50
T1 sequence (Q96RJ0 1-339): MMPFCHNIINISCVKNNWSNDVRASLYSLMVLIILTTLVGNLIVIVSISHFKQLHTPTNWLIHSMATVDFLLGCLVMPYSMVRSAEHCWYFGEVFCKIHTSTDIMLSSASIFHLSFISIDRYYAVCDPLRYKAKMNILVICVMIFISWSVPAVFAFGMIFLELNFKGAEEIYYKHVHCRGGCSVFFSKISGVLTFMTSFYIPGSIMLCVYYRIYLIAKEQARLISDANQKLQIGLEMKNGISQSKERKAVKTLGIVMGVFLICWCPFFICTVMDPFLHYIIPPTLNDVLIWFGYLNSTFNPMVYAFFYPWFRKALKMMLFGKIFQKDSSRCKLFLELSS
Method: The intrinsic activity of the TAAR1 receptor will be assessed according to the manufacturer’s protocol, using the Hit Hunter® cAMP assay by DiscoverX. This assay enables monitoring of GPCR activation in cells stably expressing TAAR1 by measuring changes in the level of the secondary messenger, cAMP. The cAMP Hunter cell lines were cultured from frozen stocks following standard procedures. Cells were plated in white-walled 384-well microplates at a total volume of 20 µL per well and incubated at 37 °C for the required period before analysis. To assess agonist activity, cells were exposed to the test compound to trigger a response. The culture medium was then removed and replaced with 15 µL of a 2:1 mixture of HBSS and 10 mM Hepes containing the cAMP XS+ antibody reagent. Sample stocks were diluted to prepare a 4× concentration in assay buffer. Subsequently, 5 µL of the 4× sample was added to each well, and the plates were incubated at either 37 °C or room temperature for 30 or 60 min. The vehicle was used at a concentration of 1%. After incubating the compounds for the required time, the assay signal was produced by adding 20 µL of the cAMP XS+ ED/CL lysis cocktail and incubating for one hour. This was followed by a three-hour incubation with 20 µL of the cAMP XS+EA reagent at room temperature. After signal development, the microplates were read using a PerkinElmer Envision Reader to detect chemiluminescence.

N#Cc1cc(/C=N/NC(=N)N)ccc1F
Ki [1]: 996 nM

COc1ccc(/C=N/NC(=N)N)cc1 [4 (JP06)]
Ki [1]: 1070 ± 78 nM

CN(C)C(=N)N=C(N)N [Metformin, metformin]
increase in glucose consumption (uptake) ([2]; 100 µM): 36% | inhibitory effect on gastric emptying ([3]; 100 mg/kg b.w.): about 30%

CN(CCOc1ccc(CC2SC(=O)NC2=O)cc1)c1ccccn1 (stereo not drawn) [Rosiglitazone, rosiglitazone]
lipid accumulation, reduction ([4]; 100 µM, relative to vehicle-treated cells): 90%

CN(C)C(=O)C(CCN1CCC(O)(c2ccc(Cl)cc2)CC1)(c1ccccc1)c1ccccc1 [loperamide]
percentage inhibition of gastric emptying ([3]; intragastric, 10 mg/kg b.w.): about 55%

Clc1cccc(N2CCNCC2)c1 [mCPP, meta-chlorophenylpiperazine]
increase in glucose consumption (uptake) ([2]; 10 µM): no significant changes | lipid accumulation (intracellular lipid content), reduction [4]: significantly increased lipid accumulation

NCC(O)c1ccc(O)cc1 (stereo not drawn) [para-octopamine]
EC50 [5]: 2000 to 20000 nM

NCCc1c[nH]c2ccccc12 [tryptamine]
EC50 [5]: 400 to 21000 nM

NCCc1ccc(O)cc1 [tyramine]
glucose-stimulating effect under TAAR1 blockade ([2]; 10 µM + RTI-7470-44 (40 nM)): substantially attenuated | increase in glucose consumption (uptake) ([2]; 10 µM): 32% | effect on steatosis under TAAR1 blockade ([6]; 10 µM + RTI-7470-44 (40 nM)): abolished | steatosis (neutral lipid accumulation) ([6]; 10 µM, vs vehicle): statistically significant decrease | effect on phospholipidosis under TAAR1 blockade ([7]; 10 µM + RTI-7470-44 (40 nM)): reversed | phospholipidosis (phospholipid accumulation) ([7]; 10 µM, vs vehicle): significantly reduced | cellular metabolic function, percentage relative to control (live cells) ([8]; Table S4, 0.1 μM): 101% | cellular metabolic function, percentage relative to control (live cells) ([8]; Table S4, 1 μM): 98% | cellular metabolic function, percentage relative to control (live cells) ([8]; Table S4, 10 μM): 97% | cellular metabolic function, percentage relative to control (live cells) ([8]; Table S4, 50 μM): 89% | cellular metabolic function, percentage relative to control (live cells) ([8]; Table S4, 100 μM): 80% | cellular metabolic function, percentage relative to control (live cells) ([9]; Table S5, 0.1 μM): 95% | cellular metabolic function, percentage relative to control (live cells) ([9]; Table S5, 1 μM): 90% | cellular metabolic function, percentage relative to control (live cells) ([9]; Table S5, 10 μM): 88% | cellular metabolic function, percentage relative to control (live cells) ([9]; Table S5, 50 μM): 67% | cellular metabolic function, percentage relative to control (live cells) ([9]; Table S5, 100 μM): 55% | lipid-lowering effect under TAAR1 blockade ([4]; 10 µM + RTI-7470-44 (40 nM)): completely abolished | lipid accumulation (intracellular lipid content), reduction [4]: 33% | membrane integrity, percentage relative to control (death cells) ([10]; 0.1 μM): 8% | membrane integrity, percentage relative to control (death cells) ([10]; 1 μM): 7% | membrane integrity, percentage relative to control (death cells) ([10]; 10 μM): 7% | membrane integrity, percentage relative to control (death cells) ([10]; 50 μM): 8% | membrane integrity, percentage relative to control (death cells) ([10]; 100 μM): 11% | membrane integrity, percentage relative to control (death cells) ([11]; 0.1 μM): 6% | membrane integrity, percentage relative to control (death cells) ([11]; 1 μM): 6% | membrane integrity, percentage relative to control (death cells) ([11]; 10 μM): 6% | membrane integrity, percentage relative to control (death cells) ([11]; 50 μM): 6% | membrane integrity, percentage relative to control (death cells) ([11]; 100 μM): 8% | EC50 [12]: 5870 ± 470 nM
